Source: patent US20230406843A1, “Progranulin Modulators and Methods of Using the Same” (ARKUDA THERAPEUTICS, priority 2020, published 2023)

System: progranulin
Assay: Progranulin induction cellular assay (ELISA of secreted mouse PGRN)
Type: cell-based
Conditions: progranulin induction assay; mouse pMG, primary cortical neurons and BV-2 cell lines named, cell type not given; ELISA-based readout; read-out: EC50
Procedure: Cellular Assays: Progranulin induction assay. To measure the efficacy of compounds, a progranulin induction cellular assay in mouse primary microglia (pMG), primary cortical neurons, and BV-2 cell lines is used. BV-2 cells are split the day before plating into a 96 well plate format at approximately 80%. Cells should be plated the day before and allowed for 1 hour attachment period and for 16 hour incubation. Levels of progranulin secreted into the cell culture medium or retained in the cell lysate can be quantified using an ELISA-based readout and measurement of secreted mouse PGRN in the medium was assessed by the methodology published by Ghidoni et al. 2012. Standard ELISA kits to measure PGRN are available from vendors such as Adipogen, R&D, and Biovendor.
Table B below presents the results of a progranulin induction assay as described above.

Structure (SMILES)	EC50 [nM]
NCC1COC(C(=O)N2CCc3ccccc3[C@@H]2c2ccc(F)cc2)C1 (mixture of isomers) [Compound 5014, ((2R)-4-(aminomethyl)tetrahydrofuran-2-yl)((S)-1-(4-fluorophenyl)-3,4-dihydroisoquinolin-2(1H)-yl)methanone]	501
NC[C@@]1(O)COC(C(=O)N2CCc3ccccc3[C@@H]2c2ccc(F)cc2)C1 (single isomer, unassigned) [Compound 5004]	164
NC[C@]1(O)COC(C(=O)N2CCc3ccccc3[C@@H]2c2ccc(F)cc2)C1 (single isomer, unassigned) [Compound 5005]	216
NCC1(O)COC(C(=O)N2CCc3ccccc3[C@@H]2c2ccc(F)cc2)C1 (single isomer, unassigned) [Compound 5006]	143
NCC1(O)COC(C(=O)N2CCc3ccccc3[C@@H]2c2ccc(F)cc2)C1 (single isomer, unassigned) [Compound 5007]	140
N[C@H]1CC[C@@H](C(=O)N2CCc3ccccc3[C@@H]2c2ccc(F)cc2)OC1 (single isomer, unassigned) [Compound 5016]	199
N[C@@H]1CC[C@H](C(=O)N2CCc3ccccc3[C@@H]2c2ccc(F)cc2)OC1 (single isomer, unassigned) [Compound 5017]	91
N[C@@H]1CC[C@@H](C(=O)N2CCc3ccccc3[C@H]2c2ccc(F)cc2F)OC1 (single isomer, unassigned) [Compound 5019]	99
N[C@]12CC[C@](C(=O)N3CCc4ccccc4[C@@H]3c3ccc(F)cc3)(C1)OC2 (single isomer, unassigned) [Compound 5021]	148
N[C@]12CC[C@](C(=O)N3CCc4ccccc4[C@H]3c3ccc(F)cc3)(C1)OC2 (single isomer, unassigned) [Compound 5023]	212
N[C@H]1CCO[C@H](C(=O)N2CCc3ccccc3[C@@H]2c2ccc(F)cc2)C1 (single isomer, unassigned) [Compound 5027]	488
O=C([C@@H]1C[C@@](O)(CNCCO)CO1)N1CCc2ccccc2[C@@H]1c1ccc(F)cc1 (single isomer, unassigned) [Compound 5038]	500
O=C([C@@H]1C[C@](O)(CNCCO)CO1)N1CCc2ccccc2[C@@H]1c1ccc(F)cc1 (single isomer, unassigned) [Compound 5039]	357
O=C([C@H]1C[C@@](O)(CNCCO)CO1)N1CCc2ccccc2[C@@H]1c1ccc(F)cc1 (single isomer, unassigned) [Compound 5040]	173
O=C([C@H]1CCNCCO1)N1CCc2ccccc2[C@@H]1c1ccc(F)cc1 (single isomer, unassigned) [Compound 5044]	163
O=C([C@@H]1CCNCCO1)N1CCc2ccccc2[C@@H]1c1ccc(F)cc1 (single isomer, unassigned) [Compound 5045]	78
NC[C@@]1(O)CC[C@@H](C(=O)N2CCc3ccccc3[C@@H]2c2ccc(F)cc2)OC1 (single isomer, unassigned) [Compound 5047]	86
O=C([C@@H]1C[C@@H](NCCO)CO1)N1CCc2ccccc2[C@@H]1c1ccc(F)cc1 (single isomer, unassigned) [Compound 5066]	948

Structure (SMILES)	EC50 [nM]
O=C([C@@H]1C[C@H](NCCO)CO1)N1CCc2ccccc2[C@@H]1c1ccc(F)cc1 (single isomer, unassigned) [Compound 5067]	767
N[C@@]1(CO)CO[C@@H](C(=O)N2CCc3ccccc3[C@@H]2c2ccc(F)cc2)C1 (single isomer, unassigned) [Compound 5071]	252
N[C@H]1CCO[C@@H](C(=O)N2CCc3ccccc3[C@@H]2c2ccc(F)cc2)C1 (single isomer, unassigned) [Compound 5080]	166
N[C@@H]1CCO[C@H](C(=O)N2CCc3ccccc3[C@@H]2c2ccc(F)cc2)C1 (single isomer, unassigned) [Compound 5081]	188
O=C([C@H]1CNCCCO1)N1CCc2ccccc2[C@@H]1c1ccc(F)cc1 (single isomer, unassigned) [Compound 5090]	162
O=C([C@@H]1CNCCCO1)N1CCc2ccccc2[C@@H]1c1ccc(F)cc1 (single isomer, unassigned) [Compound 5091]	408
C[C@]1(C(=O)N2CCc3ccccc3[C@@H]2c2ccc(F)cc2)C[C@@H](N)CCO1 (single isomer, unassigned) [Compound 5235]	372
C[C@]1(C(=O)N2CCc3ccccc3[C@@H]2c2ccc(F)cc2)C[C@H](N)CCO1 (single isomer, unassigned) [Compound 5236]	393
C[C@@]1(C(=O)N2CCc3ccccc3[C@@H]2c2ccc(F)cc2)C[C@H](N)CCO1 (single isomer, unassigned) [Compound 5237]	665
C[C@@]1(C(=O)N2CCc3ccccc3[C@@H]2c2ccc(F)cc2)C[C@@H](N)CCO1 (single isomer, unassigned) [Compound 5238]	105
O=C([C@H]1OCCNC[C@H]1O)N1CCc2ccccc2[C@@H]1c1ccc(F)cc1 (single isomer, unassigned) [Compound 5246]	100
O=C([C@H]1CCNCCO1)N1CCc2ccccc2[C@@H]1c1ccc(F)cc1F (single isomer, unassigned) [Compound 5263]	78
O=C([C@@H]1OCCNC[C@@H]1F)N1CCc2ccccc2[C@@H]1c1ccc(F)cc1 (single isomer, unassigned) [Compound 5418]	352
C[S@](=N)(=O)[C@H]1CO[C@@H](C(=O)N2CCc3ccccc3[C@@H]2c2ccc(F)cc2)C[C@@H]1N (single isomer, unassigned) [Compound 5548]	71
N=[S@]1(=O)CCN[C@H]2C[C@H](C(=O)N3CCc4ccccc4[C@@H]3c3ccc(F)cc3)OC[C@@H]21 (single isomer, unassigned) [Compound 5554]	4860
CC[N-][S@@+2](C)([O-])[C@H]1CO[C@@H](C(=O)N2CCc3ccccc3[C@@H]2c2ccc(F)cc2)C[C@@H]1N (single isomer, unassigned) [Compound 5557]	523
CC[N-][S@+2](C)([O-])[C@H]1CO[C@@H](C(=O)N2CCc3ccccc3[C@@H]2c2ccc(F)cc2)C[C@@H]1N (single isomer, unassigned) [Compound 5558]	312

The remaining compounds from weak to strong by EC50, led by results:

EC50 [nM]	Structure (SMILES)
70	C[N-][S@+2](C)([O-])[C@H]1CO[C@@H](C(=O)N2CCc3ccccc3[C@@H]2c2ccc(F)cc2)C[C@@H]1N (single isomer, unassigned) [Compound 5556]
62	NC[C@]1(O)CC[C@@H](C(=O)N2CCc3ccccc3[C@@H]2c2ccc(F)cc2)OC1 (single isomer, unassigned) [Compound 5046]
62	C[S@@+2]([NH-])([O-])[C@H]1CO[C@@H](C(=O)N2CCc3ccccc3[C@@H]2c2ccc(F)cc2)C[C@@H]1N (single isomer, unassigned) [Compound 5547]
48	O=C([C@@H]1CCNCCO1)N1CCc2ccccc2[C@@H]1c1ccc(F)cc1F (single isomer, unassigned) [Compound 5264]
44	CO[C@H]1C[C@H](C(=O)N2CCc3ccccc3[C@@H]2c2ccc(F)cc2)OC[C@H]1N (single isomer, unassigned) [Compound 5082]
42	N[C@@H]1CCO[C@@H](C(=O)N2CCc3ccccc3[C@@H]2c2ccc(F)cc2)C1 (single isomer, unassigned) [Compound 5028]
30	CC[S@@+2]([NH-])([O-])[C@H]1CO[C@@H](C(=O)N2CCc3ccccc3[C@@H]2c2ccc(F)cc2)C[C@@H]1N (single isomer, unassigned) [Compound 5549]
29	C[N-][S@@+2](C)([O-])[C@H]1CO[C@@H](C(=O)N2CCc3ccccc3[C@@H]2c2ccc(F)cc2)C[C@@H]1N (single isomer, unassigned) [Compound 5555]
28	O=C([C@H]1C[C@@H]2NCC(CO)O[C@H]2CO1)N1CCc2ccccc2[C@@H]1c1ccc(F)cc1 (single isomer, unassigned) [Compound 5535]
27	CC[S@+2]([O-])([N-]C)[C@H]1CO[C@@H](C(=O)N2CCc3ccccc3[C@@H]2c2ccc(F)cc2)C[C@@H]1N (single isomer, unassigned) [Compound 5551]
19	CCC(=O)N1CCN[C@H]2C[C@H](C(=O)N3CCc4ccccc4[C@@H]3c3ccc(F)cc3)OC[C@@H]21 (single isomer, unassigned) [Compound 5544]
17	CC[S@](=N)(=O)[C@H]1CO[C@@H](C(=O)N2CCc3ccccc3[C@@H]2c2ccc(F)cc2)C[C@@H]1N (single isomer, unassigned) [Compound 5550]
15	O=C([C@H]1C[C@@H]2NCCS[C@H]2CO1)N1CCc2ccccc2[C@@H]1c1ccc(F)cc1 (single isomer, unassigned) [Compound 5534]
11	CC[S@@](=O)(=NC)[C@H]1CO[C@@H](C(=O)N2CCc3ccccc3[C@@H]2c2ccc(F)cc2)C[C@@H]1N (single isomer, unassigned) [Compound 5552]
4	O=C([C@H]1C[C@@H]2NCCN(CC(F)(F)F)[C@H]2CO1)N1CCc2ccccc2[C@@H]1c1ccc(F)cc1 (single isomer, unassigned) [Compound 5545]
3	CC(=O)N1CCN[C@H]2C[C@H](C(=O)N3CCc4ccccc4[C@@H]3c3ccc(F)cc3)OC[C@@H]21 (single isomer, unassigned) [Compound 5543]
